# Assay results: ChEMBL document CHEMBL3994655, “Methylsulfonyl benzothiazoles (MSBT) derivatives: Search for new potential antimicrobial and anticancer agents” (2017)
# Counter-ions that a name gives are not always drawn.
# System: HeLa
# Test: Cytotoxicity against human HeLa cells assessed as reduction in cell viability after 48 hrs by SRB assay
# Format: functional, cell-based
# Settings: not given
row,Structure (SMILES),Activity
1,CCOc1ccc2sc(S(C)(=O)=O)nc2c1S(=O)(=O)Nc1ccc(Br)cc1,Dose-dependent effect

# System: HeLa
# Test: Cytotoxicity against human HeLa cells assessed as cell growth at 10^-5 M after 48 hrs by SRB assay relative to control
# Format: functional
# Settings: read-out: Activity
row,Structure (SMILES),growth at 10 µM [%]
1,CCOc1ccc2sc(S(C)(=O)=O)nc2c1S(=O)(=O)Nc1ccc(Br)cc1,-11.2
2,COc1cccc2c1C(=O)c1c(O)c3c(c(O)c1C2=O)C[C@@](O)(C(=O)CO)C[C@@H]3O[C@H]1C[C@H](N)[C@H](O)[C@H](C)O1 [DOXORUBICIN HYDROCHLORIDE],-84.1

# System: HeLa
# Test: Cytotoxicity against human HeLa cells assessed as cell growth at 10^-4 M after 48 hrs by SRB assay relative to control
# Format: functional
# Settings: read-out: Activity
row,Structure (SMILES),growth at 100 µM [%]
1,CCOc1ccc2sc(S(C)(=O)=O)nc2c1S(=O)(=O)Nc1ccc(Br)cc1,-82.3
2,COc1cccc2c1C(=O)c1c(O)c3c(c(O)c1C2=O)C[C@@](O)(C(=O)CO)C[C@@H]3O[C@H]1C[C@H](N)[C@H](O)[C@H](C)O1 [DOXORUBICIN HYDROCHLORIDE],-84.6

# System: Escherichia coli
# Test: Antibacterial activity against Escherichia coli ATCC 35421 assessed as zone of inhibition at 5 mg/ml by agar well diffusion method
# Format: functional
# Settings: read-out: DIZ
row,Structure (SMILES),zone of inhibition at 5000 µg/mL [mm]
1,CS(=O)(=O)c1nc2cc(O)ccc2s1,≤ 7
2,CCOc1ccc2sc(S(C)(=O)=O)nc2c1S(=O)(=O)NC1CC1,≤ 7
3,CCOc1ccc2sc(S(C)(=O)=O)nc2c1NC(=O)CNC(C)C,≤ 7
4,CCOc1ccc2sc(S(C)(=O)=O)nc2c1S(=O)(=O)O,≤ 7
5,CCOc1ccc2sc(S(C)(=O)=O)nc2c1S(=O)(=O)NC(C)C,≤ 7
6,CCOc1ccc2sc(S(C)(=O)=O)nc2c1S(=O)(=O)Nc1ccc(Br)cc1,10
7,CCOc1ccc2sc(S(C)(=O)=O)nc2c1S(=O)(=O)NCc1ccccc1,≤ 7
8,CS(=O)(=O)c1nc2cc(OCc3ccc(OCc4ccccc4)cc3)ccc2s1,≤ 7
9,CCOc1ccc2sc(S(C)(=O)=O)nc2c1S(=O)(=O)Nc1ccc(Cl)c(Cl)c1,≤ 7
10,CS(=O)(=O)c1nc2cc(OCc3ccccc3)ccc2s1,≤ 7
11,CCOc1ccc2sc(S(C)(=O)=O)nc2c1NC(=O)CNCN1CCCC1,≤ 7

# System: Candida albicans
# Test: Antifungal activity against Candida albicans A01 assessed as zone of inhibition at 5 mg/ml by agar well diffusion method
# Format: functional
# Settings: read-out: DIZ
row,Structure (SMILES),zone of inhibition at 5000 µg/mL [mm]
1,CS(=O)(=O)c1nc2cc(O)ccc2s1,≤ 7
2,CCOc1ccc2sc(S(C)(=O)=O)nc2c1S(=O)(=O)NC1CC1,≤ 7
3,CCOc1ccc2sc(S(C)(=O)=O)nc2c1NC(=O)CNC(C)C,≤ 7
4,CCOc1ccc2sc(S(C)(=O)=O)nc2c1S(=O)(=O)O,9
5,CCOc1ccc2sc(S(C)(=O)=O)nc2c1S(=O)(=O)NC(C)C,≤ 7
6,CCOc1ccc2sc(S(C)(=O)=O)nc2c1S(=O)(=O)Nc1ccc(Br)cc1,≤ 7
7,CCOc1ccc2sc(S(C)(=O)=O)nc2c1S(=O)(=O)NCc1ccccc1,9
8,CS(=O)(=O)c1nc2cc(OCc3ccc(OCc4ccccc4)cc3)ccc2s1,≤ 7
9,CCOc1ccc2sc(S(C)(=O)=O)nc2c1S(=O)(=O)Nc1ccc(Cl)c(Cl)c1,≤ 7
10,CS(=O)(=O)c1nc2cc(OCc3ccccc3)ccc2s1,≤ 7
11,CCOc1ccc2sc(S(C)(=O)=O)nc2c1NC(=O)CNCN1CCCC1,≤ 7

# System: Candida albicans
# Test: Antifungal activity against Candida albicans A01 assessed as zone of inhibition at 1 mg/ml by agar well diffusion method
# Format: functional
# Settings: read-out: DIZ
row,Structure (SMILES),zone of inhibition at 1000 µg/mL [mm]
1,CS(=O)(=O)c1nc2cc(O)ccc2s1,≤ 7
2,CCOc1ccc2sc(S(C)(=O)=O)nc2c1S(=O)(=O)NC1CC1,≤ 7
3,CCOc1ccc2sc(S(C)(=O)=O)nc2c1NC(=O)CNC(C)C,≤ 7
4,CCOc1ccc2sc(S(C)(=O)=O)nc2c1S(=O)(=O)O,≤ 7
5,CCOc1ccc2sc(S(C)(=O)=O)nc2c1S(=O)(=O)NC(C)C,≤ 7
6,CCOc1ccc2sc(S(C)(=O)=O)nc2c1S(=O)(=O)Nc1ccc(Br)cc1,≤ 7
7,CCOc1ccc2sc(S(C)(=O)=O)nc2c1S(=O)(=O)NCc1ccccc1,≤ 7
8,CS(=O)(=O)c1nc2cc(OCc3ccc(OCc4ccccc4)cc3)ccc2s1,≤ 7
9,CCOc1ccc2sc(S(C)(=O)=O)nc2c1S(=O)(=O)Nc1ccc(Cl)c(Cl)c1,≤ 7
10,CS(=O)(=O)c1nc2cc(OCc3ccccc3)ccc2s1,≤ 7
11,CCOc1ccc2sc(S(C)(=O)=O)nc2c1NC(=O)CNCN1CCCC1,≤ 7

# System: Escherichia coli
# Test: Antibacterial activity against Escherichia coli ATCC 35421 assessed as zone of inhibition at 1 mg/ml by agar well diffusion method
# Format: functional
# Settings: read-out: DIZ
row,Structure (SMILES),zone of inhibition at 1000 µg/mL [mm]
1,CS(=O)(=O)c1nc2cc(O)ccc2s1,≤ 7
2,CCOc1ccc2sc(S(C)(=O)=O)nc2c1S(=O)(=O)NC1CC1,≤ 7
3,CCOc1ccc2sc(S(C)(=O)=O)nc2c1NC(=O)CNC(C)C,≤ 7
4,CCOc1ccc2sc(S(C)(=O)=O)nc2c1S(=O)(=O)O,≤ 7
5,CCOc1ccc2sc(S(C)(=O)=O)nc2c1S(=O)(=O)NC(C)C,≤ 7
6,CCOc1ccc2sc(S(C)(=O)=O)nc2c1S(=O)(=O)Nc1ccc(Br)cc1,9
7,CCOc1ccc2sc(S(C)(=O)=O)nc2c1S(=O)(=O)NCc1ccccc1,≤ 7
8,CS(=O)(=O)c1nc2cc(OCc3ccc(OCc4ccccc4)cc3)ccc2s1,≤ 7
9,CCOc1ccc2sc(S(C)(=O)=O)nc2c1S(=O)(=O)Nc1ccc(Cl)c(Cl)c1,≤ 7
10,CS(=O)(=O)c1nc2cc(OCc3ccccc3)ccc2s1,≤ 7
11,CCOc1ccc2sc(S(C)(=O)=O)nc2c1NC(=O)CNCN1CCCC1,≤ 7

# System: HeLa
# Test: Cytotoxicity against human HeLa cells assessed as cell growth at 10^-7 M after 48 hrs by SRB assay relative to control
# Format: functional
# Settings: read-out: Activity
row,Structure (SMILES),growth at 0.1 µM [%]
1,CCOc1ccc2sc(S(C)(=O)=O)nc2c1S(=O)(=O)Nc1ccc(Br)cc1,95.9
2,COc1cccc2c1C(=O)c1c(O)c3c(c(O)c1C2=O)C[C@@](O)(C(=O)CO)C[C@@H]3O[C@H]1C[C@H](N)[C@H](O)[C@H](C)O1 [DOXORUBICIN HYDROCHLORIDE],-76.8

# System: HeLa
# Test: Growth inhibition of human HeLa cells after 48 hrs by SRB assay
# Format: functional
# Settings: not given
Structure (SMILES),GI50 [µM],LC50 [µM],TGI [µM],growth inhibition (GI)
CCOc1ccc2sc(S(C)(=O)=O)nc2c1S(=O)(=O)Nc1ccc(Br)cc1,6.8,74.5,40.6,Dose-dependent effect
COc1cccc2c1C(=O)c1c(O)c3c(c(O)c1C2=O)C[C@@](O)(C(=O)CO)C[C@@H]3O[C@H]1C[C@H](N)[C@H](O)[C@H](C)O1 [DOXORUBICIN HYDROCHLORIDE],< 0.1,,< 0.1,

# System: Staphylococcus aureus
# Test: Antibacterial activity against Staphylococcus aureus 209P assessed as zone of inhibition at 1 mg/ml by agar well diffusion method
# Format: functional
# Settings: read-out: DIZ
row,Structure (SMILES),zone of inhibition at 1000 µg/mL [mm]
1,CS(=O)(=O)c1nc2cc(O)ccc2s1,≤ 7
2,CCOc1ccc2sc(S(C)(=O)=O)nc2c1S(=O)(=O)NC1CC1,≤ 7
3,CCOc1ccc2sc(S(C)(=O)=O)nc2c1NC(=O)CNC(C)C,≤ 7
4,CCOc1ccc2sc(S(C)(=O)=O)nc2c1S(=O)(=O)O,≤ 7
5,CCOc1ccc2sc(S(C)(=O)=O)nc2c1S(=O)(=O)NC(C)C,≤ 7
6,CCOc1ccc2sc(S(C)(=O)=O)nc2c1S(=O)(=O)Nc1ccc(Br)cc1,9
7,CCOc1ccc2sc(S(C)(=O)=O)nc2c1S(=O)(=O)NCc1ccccc1,≤ 7
8,CS(=O)(=O)c1nc2cc(OCc3ccc(OCc4ccccc4)cc3)ccc2s1,≤ 7
9,CCOc1ccc2sc(S(C)(=O)=O)nc2c1S(=O)(=O)Nc1ccc(Cl)c(Cl)c1,≤ 7
10,CS(=O)(=O)c1nc2cc(OCc3ccccc3)ccc2s1,8
11,CCOc1ccc2sc(S(C)(=O)=O)nc2c1NC(=O)CNCN1CCCC1,≤ 7

# System: Staphylococcus aureus
# Test: Antibacterial activity against Staphylococcus aureus 209P assessed as zone of inhibition at 5 mg/ml by agar well diffusion method
# Format: functional
# Settings: read-out: DIZ
row,Structure (SMILES),zone of inhibition at 5000 µg/mL [mm]
1,CS(=O)(=O)c1nc2cc(O)ccc2s1,≤ 7
2,CCOc1ccc2sc(S(C)(=O)=O)nc2c1S(=O)(=O)NC1CC1,≤ 7
3,CCOc1ccc2sc(S(C)(=O)=O)nc2c1NC(=O)CNC(C)C,≤ 7
4,CCOc1ccc2sc(S(C)(=O)=O)nc2c1S(=O)(=O)O,≤ 7
5,CCOc1ccc2sc(S(C)(=O)=O)nc2c1S(=O)(=O)NC(C)C,≤ 7
6,CCOc1ccc2sc(S(C)(=O)=O)nc2c1S(=O)(=O)Nc1ccc(Br)cc1,11
7,CCOc1ccc2sc(S(C)(=O)=O)nc2c1S(=O)(=O)NCc1ccccc1,≤ 7
8,CS(=O)(=O)c1nc2cc(OCc3ccc(OCc4ccccc4)cc3)ccc2s1,≤ 7
9,CCOc1ccc2sc(S(C)(=O)=O)nc2c1S(=O)(=O)Nc1ccc(Cl)c(Cl)c1,≤ 7
10,CS(=O)(=O)c1nc2cc(OCc3ccccc3)ccc2s1,≤ 7
11,CCOc1ccc2sc(S(C)(=O)=O)nc2c1NC(=O)CNCN1CCCC1,≤ 7

# System: HeLa
# Test: Cytotoxicity against human HeLa cells assessed as cell growth at 10^-6 M after 48 hrs by SRB assay relative to control
# Format: functional
# Settings: read-out: Activity
row,Structure (SMILES),growth at 1 µM [%]
1,CCOc1ccc2sc(S(C)(=O)=O)nc2c1S(=O)(=O)Nc1ccc(Br)cc1,73.7
2,COc1cccc2c1C(=O)c1c(O)c3c(c(O)c1C2=O)C[C@@](O)(C(=O)CO)C[C@@H]3O[C@H]1C[C@H](N)[C@H](O)[C@H](C)O1 [DOXORUBICIN HYDROCHLORIDE],-82.9
